{"source": "patent EP2271935B1", "about": "“METHOD AND KIT FOR THE EX VIVO EVALUATION OF THE RESPONSE OF A TUMOR TO CONDITIONS TO BE TESTED” (Universität Leipzig, priority 2008, dated 2009)", "test_system": "epithelial cell line KB (DSMZ ACC 136)", "test": "MTT assay of proliferation under varied riboflavin content and light exposure", "type": "cell-based, human", "text": "To address this question, three media, a) the RPMI 1640 without riboflavin and phenol red that is used in the method according to the invention and was manufactured according to our specifications by Biochrom, as well as two different RPMI 1640 charges purchased from Invitrogen which were each containing 532 nmol/L riboflavin, b) a phenol red-free (Gibco 11835), and c) a conventional RPMI 1640 (Gibco 21875) with 13.284 µmol/L phenol red. All media were supplemented with 2 mmol/L L-alanyl-1-glutamine as stabilized glutamine source (Biochrom K0302 Lot 0755 S) and the same amount of 10% (v/v) of heat-inactivated fetal calf serum (FCS) that was purchased from Invitrogen (Lot 41Q7554K) with a yield of 198 nmol/L riboflavin. […] These medium concentrations define the riboflavin concentrations in controls (see below).\nIn addition to the influences exerted by the different types of media alone, the riboflavin-dependent impact on the outcome of the docetaxel treatment was investigated. For this purpose 100 µl/well of docetaxel dilutions containing threefold the concentration indicated were added into the wells of microwell plates. The following seven docetaxel concentrations were tested: 19.38, 38.75, 77.5, 155, 310, 620, and 1,240 pmol/L.\nTo examine photoactivation-dependent riboflavin-mediated effects disturbing the outcome of ex-vivo chemoresponse-evaluation by conventional cell culture medium, and in particular in the absence of flavin-protecting experimental conditions, varying amounts of riboflavin were added. A stock solution of 200 µM (-)-riboflavin (CAS 83-68-5, Sigma R9504, FW=376.37 g/mol, purity >99%, cell culture tested) in phosphate buffered saline was diluted to adjust in each case the highest final concentration in culture (this means: after completion of the assay by addition of the other two components to the final assay volume of 300 µL) to exactly 10 µmol/L. Serial log10-dilutions were made from this concentration in each corresponding medium. These gave final concentrations in cell culture of 10.000, 1.018, 0.12, and 0.03 µmol/L in the case of medium a) (the medium according to the method of the invention), and concentrations of 10.000, 1.449, 0.594, and 0.508 µmol/L using media b) and c).\nIn general, each combination of riboflavin and docetaxel were tested in duplicate, and controls without additional riboflavin in quadruplicate for each experimental setting in the same 96-well plate. The experimental conditions were as follows: For each of the used media, two different plates were prepared simultaneously and either handled completely under flavin-protecting conditions (illumination only by sodium discharge lamps with an emission wavelength of 589 nm [i]), or in the same bench (Thermo MSC 12) with the installed light inside their working chamber switched on. The dilution of docetaxel and those of riboflavin in the particular medium were prepared for all four plates of each medium type prior to the other working steps under flavin-protecting conditions. Thus the administrations of these dilutions took about 20 min either under flavin-protecting conditions or illuminated conditions. After completed preparation of the plates that thereafter contained 200 µL of both diluted compounds, the plates were incubated 2 h in the incubator to allow for adjustment of the appropriate pH.\nIn between the stock culture of KB was harvested by trypsination of a 3-days stock culture (exponential growth phase). Stock cultures of KB cells always were grown without any antibiotic or antimycotic in phenol red- and riboflavin-free RPMI 1640 supplemented with 10% (v/v) FCS and were adapted to this medium for more than five passages. They were always handled at room temperature or warmer and were never exposed to light other than the light of a sodium discharge lamp with an emission wavelength of 589 nm for at least five passages. […]"}
{"compound": "Cc1cc2nc3c(=O)[nH]c(=O)nc-3n(C[C@H](O)[C@H](O)[C@H](O)CO)c2cc1C", "note": "[riboflavin, (-)-riboflavin]", "values": [{"measurement": "toxicity of riboflavin to KB cells", "setting": "10 µmol/L riboflavin; plate 03, medium a), bench lighting below 30 min", "value": "complete die off of the KB cells"}, {"measurement": "riboflavin concentrations leading to complete dying of all KB cells", "setting": "exposed to daylight 30 min (plates 02, 04, 06, 08, 10, and 12)", "value": "above 594 nmol/L"}]}
